Assay results from patent US10072005B2, “4-azaindole derivatives” (EISAI R&D MANAGEMENT CO., LTD., priority 2013, dated 2018).

Assays:
[1] = tested on: male Crlj: WI rats; experiment: Morris Water Maze Test in Ibotenic Acid-Induced Learning Disability Model; format: in vivo, rat; settings: for Swimming time in 4th quadrant / Frequency of entry into platform area: probe trial
Method: Ibotenic acid at 5 μg/0.5 μL was injected into both basal nuclei of 8-week old male Crlj: WI rats, and a Morris water maze test was performed 10-14 days after ibotenic acid injection. It has been reported that rats in which basal forebrain was lesioned by ibotenic acid injection show learning disability in the Morris water maze test. (Pharmacopsychiat, 1999, 32, 242-247). The test is considered a model of spatial learning and memory.
Learning trials were performed twice a day at an interval of 3 hours for 4 days (8 times in total), and probe trials were performed once the day after completion of the learning trials. Each test compound was dissolved in a 0.5% methylcellulose in water and orally administered 1 hour before the first trial on each day of the learning trials and 1 hour before the trial on the day of the probe trials.
A colorless clear acrylic platform (diameter: about 12 cm, height: about 30 cm) and a gray vinyl chloride circular pool (diameter: about 148 cm, height: about 44 cm), which was filled with water (temperature: 17-18° C.) up to a height of about 32 cm so that the platform was fully immersed in water, were used as the test device. Four quadrants were prepared at the bottom of the pool, and the platform was set at the center of 1 of the 4 quadrants (about 37 cm from the center of the pool). A light bulb was placed near the quadrant with the platform as a spatial cue.
In learning trials, the animal was put into water and goal latency and swimming distance to reach the platform were measured (measurement time: 90 seconds at the longest) by a video image behavioral analysis device (Etho Vision XT, Noldus Information Technology Inc.). When an animal reached the platform within 90 seconds and stayed on the platform for 30 seconds, it was judged that the animal recognized the position of the platform, and the measurement was finished.
In probe trials, the platform was removed from the pool. The animal was put into water, and the swimming time in the quadrant where the platform had been located in the learning trials and the frequency of entry into the platform area where the platform had been located in the learning trials were measured by Etho Vision XT.
Each value was shown as an average and a standard error (n=10). The statistical significance between a control group and a vehicle group was analyzed by the independent t-test. The statistical significance between the vehicle group and each sample group was analyzed by one-way analysis of variance and then by Dunnett's multiple comparison test. The significance level was set to 5% on both sides. […] The analysis was carried out by using SAS system (SAS Institute Japan Ltd.).

[2] = molecular target: mAChR M5 (Homo sapiens (Human), UniProt P08912); experiment: In vitro cellular calcium flux assay, PAM, NAM and agonist modes, mAChR M5; format: cell-based
Method: Baby hamster kidney cells stably expressing human or rat mAChR M1 to M5 were utilised for primary and selectivity profiling activities. mAChR M2 and M4 cell lines also stably expressed the chimeric Gαqi5 G-protein.
Human mAChR M1, M3, M5 and rat M1 cells were grown in low glucose Dulbecco's Modified Eagle's Medium (DMEM) medium plus heat inactivated 10% fetal bovine serum (HI FBS) and 500 μg/ml hygromycin B^1. Human mAChR M2 and M4 cells were maintained as above with^2 the addition of 500 μg/ml G418 to the media. Cells were maintained in culture at 37° C./5% CO2 and passaged twice weekly by treatment with 0.05% Trypsin/EDTA detachment solution, centrifugation (200 g, 5 min) and re-suspension in fresh media. Following cell expansion, cells were cryopreserved at −80° C. by treatment with 0.05% Trypsin/EDTA detachment solution, centrifugation (200 g, 5 min) and re-suspension of the pellet in freezing media (90% HI FBS/10% DMSO^3) at 15E6 cells/ml^4.
Prior to assaying, cells were prepared by thawing at 37° C. in a water bath, centrifugation (200 g, 5 min) and re-suspension of the pellet in fresh media. 15000 cells per well were seeded in black, clear bottomed 384-well Greiner Bio-One plates in plating medium (DMEM/10% HI FBS) and incubated overnight at 37 C/5% CO2.
On the day of the assay, media was removed from each well and replaced with 50 μl^5 assay buffer (HBSS with 20 mM HEPES and 2.5 mM Probenecid) containing the calcium indicator, Calcium 4 (Molecular Devices). Cells were then incubated at 37° C./5% CO2 for 30 min and at room temperature.
Compound preparation was carried out by generation of 11-point, 1 in 3 serial dilution concentration response curves in 100% DMSO. Compound was then diluted 1 in 65^6 with assay buffer (HBSS with 20 mM HEPES and 2.5 mM Probenecid) prior to the addition of 10 ul^7 to the cells using a Tetra fluorometric imaging plate reader (Molecular Devices)^8. Compound driven increases in intracellular calcium flux was measured as an increase in fluorescence (494Ex, 516Em)^9.
Positive allosteric modulator pEC50 values and antagonist pIC50 values for each compound were then determined. […] The points of modification and the alternate reagents, concentrations or equipment employed in these examples were: ^1200 μg/ml hygromycin B; ^2G418 not added; ^3CELLBANKER 1; ^410E6; ^5 40 μl; ^6 1 in 99; ^7 20 μl; ^8FDSS6000 (Hamamatsu Photonics); ^9(480Ex, 540Em); ^10Spotfire (TIBCO).
Certain compounds were tested in PAM, NAM and agonist modes against mAChR M2, M3, M4 and M5.

[3] = molecular target: mAChR M1 (Homo sapiens, UniProt P11229); experiment: In vitro cellular calcium flux assay, positive allosteric modulation of mAChR M1; format: cell-based; settings: BHK cells expressing mAChR M1; EC20 carbachol; Examples 76-80 and 82-89 slightly modified procedure
Summary of the method: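 Baby hamster kidney cells stably expressing human mAChR M1, loaded with Calcium 4 dye in HBSS/20 mM HEPES/2.5 mM probenecid for 30 min at 37 °C. An 11-point 1-in-3 compound dilution series was added and calcium rise read as fluorescence; positive allosteric modulator pEC50 and antagonist pIC50 derived.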

Chain of mAChR M1 (P11229 whole entry, looked up): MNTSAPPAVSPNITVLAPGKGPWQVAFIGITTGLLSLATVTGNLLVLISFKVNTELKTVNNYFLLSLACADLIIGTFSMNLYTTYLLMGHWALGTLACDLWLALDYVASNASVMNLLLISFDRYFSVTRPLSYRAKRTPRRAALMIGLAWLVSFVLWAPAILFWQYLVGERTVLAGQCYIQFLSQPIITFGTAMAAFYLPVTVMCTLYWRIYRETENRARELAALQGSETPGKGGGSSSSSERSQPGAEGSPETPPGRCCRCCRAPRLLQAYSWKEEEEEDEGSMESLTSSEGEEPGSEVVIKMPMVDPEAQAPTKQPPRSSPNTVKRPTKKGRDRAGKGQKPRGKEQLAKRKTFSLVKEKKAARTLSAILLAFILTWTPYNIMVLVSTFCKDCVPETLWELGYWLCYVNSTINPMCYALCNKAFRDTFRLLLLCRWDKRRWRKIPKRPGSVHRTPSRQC
Chain of mAChR M5 (P08912 whole entry): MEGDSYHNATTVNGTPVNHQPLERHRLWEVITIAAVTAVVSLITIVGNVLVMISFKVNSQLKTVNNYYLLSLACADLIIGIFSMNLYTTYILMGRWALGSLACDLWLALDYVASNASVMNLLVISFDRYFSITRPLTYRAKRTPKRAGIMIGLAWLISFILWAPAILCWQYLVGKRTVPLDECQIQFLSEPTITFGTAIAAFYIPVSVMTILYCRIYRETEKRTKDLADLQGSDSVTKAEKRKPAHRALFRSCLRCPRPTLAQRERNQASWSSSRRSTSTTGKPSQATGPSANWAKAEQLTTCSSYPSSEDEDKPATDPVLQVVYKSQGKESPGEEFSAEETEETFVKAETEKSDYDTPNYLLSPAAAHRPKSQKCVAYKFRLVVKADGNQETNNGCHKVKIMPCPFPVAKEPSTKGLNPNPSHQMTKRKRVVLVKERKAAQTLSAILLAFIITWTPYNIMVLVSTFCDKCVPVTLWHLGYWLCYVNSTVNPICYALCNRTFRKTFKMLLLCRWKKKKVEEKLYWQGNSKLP

Q: Which results are given for `O=C(N[C@H]1CCCC[C@@H]1O)c1cn(Cc2ccc(F)cc2)c2cccnc12` [Example 5, 1-(4-Fluorobenzyl)-N-((1S,2S)-2-hydroxycyclohexyl)-1H-pyrrolo[3,2-b]pyridine-3-carboxamide]?
A: Goal latency ([1]; Trial 1, 0.1 mg/kg p.o.): [90 ± 0.00] sec.; Swimming distance ([1]; Trial 1, 0.1 mg/kg p.o.): [2152.96 ± 91.73] cm; Goal latency ([1]; Trial 1, 0.3 mg/kg p.o.): [90 ± 0.00] sec.; Swimming distance ([1]; Trial 1, 0.3 mg/kg p.o.): [2400.75 ± 122.49] cm; Goal latency ([1]; Trial 2, 0.1 mg/kg p.o.): [90 ± 0.00] sec.; Swimming distance ([1]; Trial 2, 0.1 mg/kg p.o.): [2353.99 ± 145.71] cm; Goal latency ([1]; Trial 2, 0.3 mg/kg p.o.): [89.47 ± 0.53] sec.; Swimming distance ([1]; Trial 2, 0.3 mg/kg p.o.): [2533.19 ± 86.87] cm; Goal latency ([1]; Trial 3, 0.1 mg/kg p.o.): [78.81 ± 8.1] sec.; Swimming distance ([1]; Trial 3, 0.1 mg/kg p.o.): [1884.79 ± 174.8] cm; Goal latency ([1]; Trial 3, 0.3 mg/kg p.o.): [75.08 ± 7.99] sec.; Swimming distance ([1]; Trial 3, 0.3 mg/kg p.o.): [1945.42 ± 189.94] cm; Goal latency ([1]; Trial 4, 0.1 mg/kg p.o.): [79.59 ± 7.36] sec.; Swimming distance ([1]; Trial 4, 0.1 mg/kg p.o.): [1822.32 ± 206.29] cm; Goal latency ([1]; Trial 4, 0.3 mg/kg p.o.): [60.53 ± 12.15]# sec.; Swimming distance ([1]; Trial 4, 0.3 mg/kg p.o.): [1592.82 ± 308.21] cm; Goal latency ([1]; Trial 5, 0.1 mg/kg p.o.): [83.06 ± 4.7] sec.; Swimming distance ([1]; Trial 5, 0.1 mg/kg p.o.): [1918.78 ± 132.12] cm; Goal latency ([1]; Trial 5, 0.3 mg/kg p.o.): [53.99 ± 10.18]## sec.; Swimming distance ([1]; Trial 5, 0.3 mg/kg p.o.): [1417.94 ± 229.44]## cm; Goal latency ([1]; Trial 6, 0.1 mg/kg p.o.): [66.13 ± 12.22] sec.; Swimming distance ([1]; Trial 6, 0.1 mg/kg p.o.): [1464.97 ± 308.91] cm; Goal latency ([1]; Trial 6, 0.3 mg/kg p.o.): [33.09 ± 9.78]## sec.; Swimming distance ([1]; Trial 6, 0.3 mg/kg p.o.): [876.2 ± 203.14]## cm; Goal latency ([1]; Trial 7, 0.1 mg/kg p.o.): [76.97 ± 8.11] sec.; Swimming distance ([1]; Trial 7, 0.1 mg/kg p.o.): [1839.16 ± 221.78] cm; Goal latency ([1]; Trial 7, 0.3 mg/kg p.o.): [50.1 ± 10.02]## sec.; Swimming distance ([1]; Trial 7, 0.3 mg/kg p.o.): [1329.27 ± 236.21]## cm; Goal latency ([1]; Trial 8, 0.1 mg/kg p.o.): [67.24 ± 10.13] sec.; Swimming distance ([1]; Trial 8, 0.1 mg/kg p.o.): [1492.52 ± 260.05] cm; Goal latency ([1]; Trial 8, 0.3 mg/kg p.o.): [38.02 ± 10.74]## sec.; Swimming distance ([1]; Trial 8, 0.3 mg/kg p.o.): [1020.57 ± 253.94]## cm; Swimming time in 4th quadrant ([1]; 0-30 sec., 0.1 mg/kg p.o.): [8.90 ± 1.02]# sec.; Swimming time in 4th quadrant ([1]; 0-30 sec., 0.3 mg/kg p.o.): [7.19 ± 1.11] sec.; Frequency of entry into platform area ([1]; 0.1 mg/kg p.o.): [0.9 ± 0.3]; Frequency of entry into platform area ([1]; 0.3 mg/kg p.o.): [1.7 ± 0.5]##; Swimming time in 4th quadrant ([1]; 30-60 sec., 0.1 mg/kg p.o.): [9.41 ± 1.80]# sec.; Swimming time in 4th quadrant ([1]; 30-60 sec., 0.3 mg/kg p.o.): [8.48 ± 1.25] sec.; Swimming time in 4th quadrant ([1]; 60-90 sec., 0.1 mg/kg p.o.): [7.74 ± 0.85] sec.; Swimming time in 4th quadrant ([1]; 60-90 sec., 0.3 mg/kg p.o.): [7.49 ± 1.37] sec.; Swimming time in 4th quadrant ([1]; Total, 0.1 mg/kg p.o.): [26.05 ± 2.03]## sec.; Swimming time in 4th quadrant ([1]; Total, 0.3 mg/kg p.o.): [23.16 ± 2.97] sec.; EC50 [2]: > 10 µM; pEC50 for positive allosteric modulation [3]: 6.9
